Data reported in patent US20060057669A1, “Inactive transcription factor tif-ia and uses thereof” (priority 2002, published 2006).

Key:
[1] = system: pre-rRNA synthesis in NIH3T3 cells; assay: Northern blot of cellular pre-rRNA after mitogenic stimulation; type: cell-based; conditions: starved NIH3T3 cells stimulated by serum, bFGF, EGF or TPA; 40 μM PD98059, 30 min
Method: (C) PD98059 inhibits mitogenic stimulation of Pol I transcription. NIH3T3 cells were starved in DMEM/0.1% FCS for 12 hr before stimulation by serum, 10 ng/ml bFGF, 50 ng/ml EGF or 0.1 μM TPA in the absence or presence of 40 μM PD98059 for 30 min. Cellular RNA was isolated and the level of pre-rRNA, c-jun mRNA and cytochrome C oxidase (cox) mRNA was monitored on Northern blots.
NIH3T3, HEK293T and CLL39 cells were cultured in Dulbecco's modified Eagles medium (DMEM) supplemented with 10% fetal calf serum. Cells were transfected with 5 μg of DNA per 10^6 cells using the calcium phosphate DNA coprecipitation method. Total RNA was isolated after 48 h and analyzed on Northern blots as described (Voit et al., EMBO J. 18 (1999), 1891-1899). Cellular pre-rRNA levels were monitored by hybridization to antisense RNA complementary to the first 155 nucleotides of unprocessed 45S pre-RNA. Transcripts from the rDNA reporter plasmid were monitored by hybridization to a riboprobe that is complementary to pUC sequences inserted between the rDNA promoter and terminator sequences of pMrl930-BH. […] Transcripts from the rDNA reporter plasmid were monitored by hybridization to a riboprobe that is complementary to pUC sequences inserted between the rDNA promoter and terminator sequences of pMrl930-BH. […]

TIF-IB/SL1 = assay: Co-immunoprecipitation of TIF-IB/SL1 with TIF-IA mutants from HEK293T cells; type: binding, human
Method: (B) A mutant that mimics phosphorylation of TIF-IA at S199 fails to interact with Pol I and TIF-IB. FLAG-tagged wild-type TIF-IA or the indicated point mutants were overexpressed in HEK293T cells and immunoprecipitated from cell lysates with anti-FLAG antibodies (M2 agarose). Co-precipitated Pol I and TIF-IB/SL1 were visualized on Western blots with anti-RPA116 and anti-TAFI110 antibodies.
Immunoprecipitations were carried out from human cells overexpressing FLAG-tagged TIF-IA. Cells were lysed in IP buffer, cleared by centrifugation at 10,000×g for 30 min, and the supernatants were incubated for 4 hr at 4° C. with anti-FLAG (M2) agarose (Sigma). To analyze the interaction of TIF-IA with TIF-IB/SL1, the immunoprecipitates were washed with IP buffer and TIF-IB/SL1 was visualized on immunoblots with α-TAFI110 antibodies. To monitor the interaction of TIF-IA with Pol I, the immunoprecipitates were washed with IP buffer containing 600 mM NaCl and Pol I was analyzed on Western blots using antibodies against the second largest subunit of Pol I (RPA116) or PAF67 (Seither et al., J. Biol. Chem. 382 (2001), 1163-1170).
Given the importance of mTOR-mediated alterations in the phosphorylation pattern on TIF-IA activity, one could predict that either phosphorylation of S199, dephosphorylation of S44 or both regulate the interaction of TIF-IA with the Pol I transcription apparatus. It was therefore examined whether the S→A or S→D point mutant(s) were capable of interacting with Pol I and/or TIF-IB/SL1. For this, TIF-IA was precipitated from cells overexpressing either FLAG-tagged wild-type TIF-IA or the respective S199 and S44 mutant(s), and co-precipitated Pol I and TIF-IB/SL1 were visualized on Western blots.

| Molecule | effect on serum- and growth factor-induced pre-rRNA synthesis [1] | interaction with TIF-IB/SL1 (co-precipitated TAFI110) (TIF-IB/SL1) |
| --- | --- | --- |
| COc1cccc(-c2cc(=O)c3ccccc3o2)c1N [PD98059] | blocked serum- and growth factor-induced stimulation of pre-rRNA synthesis | – |
| TIF-IA: wild-type human transcription initiation factor TIF-IA, accession No. AJ272050 | – | interacted with both Pol I and TIF-IB/SL1 |
